Data reported in ChEMBL document CHEMBL1909046, “DrugMatrix in vitro pharmacology data”.

How the values were obtained:
[1] = DRUGMATRIX: GABAA, Flunitrazepam, Central radioligand binding (ligand: [3H] Flunitrazepam); format: cell membranes, Rattus norvegicus, Wistar, Brain, Membrane; details: Not Active = under 50% inhibition at 10 µM
[2] = DRUGMATRIX: GABAA, Muscimol, Central radioligand binding (ligand: [3H] Muscimol); format: cell membranes, Rattus norvegicus, Wistar, Brain, Membrane; details: Not Active = under 50% inhibition at 10 µM
[3] = molecular target: Beta-1 adrenergic receptor (Homo sapiens, UniProt P08588); assay: DRUGMATRIX: Adrenergic beta1 radioligand binding (ligand: [125I] Cyanopindolol); format: cell membranes, CHO-K1, Membrane; details: cho-k1; Not Active = under 50% inhibition at 10 µM
Chain of Beta-1 adrenergic receptor (P08588 whole entry): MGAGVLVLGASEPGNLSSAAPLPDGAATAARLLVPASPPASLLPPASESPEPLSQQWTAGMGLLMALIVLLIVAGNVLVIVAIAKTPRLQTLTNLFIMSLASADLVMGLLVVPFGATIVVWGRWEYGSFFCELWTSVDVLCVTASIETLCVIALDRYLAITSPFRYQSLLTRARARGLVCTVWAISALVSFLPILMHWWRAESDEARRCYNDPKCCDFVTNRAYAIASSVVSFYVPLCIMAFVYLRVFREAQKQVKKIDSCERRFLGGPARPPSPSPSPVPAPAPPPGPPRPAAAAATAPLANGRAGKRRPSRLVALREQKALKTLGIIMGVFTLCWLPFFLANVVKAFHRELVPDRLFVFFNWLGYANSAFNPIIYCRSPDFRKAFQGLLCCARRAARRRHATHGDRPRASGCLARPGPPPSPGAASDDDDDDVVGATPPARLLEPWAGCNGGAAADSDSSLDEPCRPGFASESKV

[4] = molecular target: C-C chemokine receptor type 2 (Homo sapiens, UniProt P41597); format: cell membranes, CHO-K1, Membrane; note: in other assays of this panel Not Active means under 50% inhibition at 10 µM
Chain of C-C chemokine receptor type 2 (P41597 whole entry): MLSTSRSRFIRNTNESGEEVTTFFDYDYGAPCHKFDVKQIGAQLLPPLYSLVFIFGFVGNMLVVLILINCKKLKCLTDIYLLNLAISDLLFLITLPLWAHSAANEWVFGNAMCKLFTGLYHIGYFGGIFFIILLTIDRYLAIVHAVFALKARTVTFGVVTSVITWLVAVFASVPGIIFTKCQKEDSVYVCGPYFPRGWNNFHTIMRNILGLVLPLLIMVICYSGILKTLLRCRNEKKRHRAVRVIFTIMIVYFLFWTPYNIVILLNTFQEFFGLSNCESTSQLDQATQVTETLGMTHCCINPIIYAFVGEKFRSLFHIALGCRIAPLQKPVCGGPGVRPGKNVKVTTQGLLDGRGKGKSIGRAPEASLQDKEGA

B2 bradykinin receptor = molecular target: T1, B2 bradykinin receptor (Homo sapiens, UniProt P30411); format: cell membranes, Membrane; details: chem-1; note: in other assays of this panel Not Active means under 50% inhibition at 10 µM
T1 sequence (P30411 whole entry): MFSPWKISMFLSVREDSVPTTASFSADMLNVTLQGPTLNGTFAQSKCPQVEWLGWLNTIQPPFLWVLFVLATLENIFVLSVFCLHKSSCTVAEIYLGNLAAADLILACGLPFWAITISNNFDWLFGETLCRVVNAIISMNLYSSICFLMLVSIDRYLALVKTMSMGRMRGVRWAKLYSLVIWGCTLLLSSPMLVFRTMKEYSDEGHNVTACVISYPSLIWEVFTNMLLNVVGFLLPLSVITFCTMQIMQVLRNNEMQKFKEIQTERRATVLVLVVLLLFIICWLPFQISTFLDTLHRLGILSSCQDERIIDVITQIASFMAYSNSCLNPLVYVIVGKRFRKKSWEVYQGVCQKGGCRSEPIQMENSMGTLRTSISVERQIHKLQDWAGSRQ

[5] = molecular target: T2, Cholecystokinin receptor type A (Homo sapiens, UniProt P32238); format: cell membranes, Membrane; details: 1321-n1; note: in other assays of this panel Not Active means under 50% inhibition at 10 µM
T2 sequence (P32238 whole entry): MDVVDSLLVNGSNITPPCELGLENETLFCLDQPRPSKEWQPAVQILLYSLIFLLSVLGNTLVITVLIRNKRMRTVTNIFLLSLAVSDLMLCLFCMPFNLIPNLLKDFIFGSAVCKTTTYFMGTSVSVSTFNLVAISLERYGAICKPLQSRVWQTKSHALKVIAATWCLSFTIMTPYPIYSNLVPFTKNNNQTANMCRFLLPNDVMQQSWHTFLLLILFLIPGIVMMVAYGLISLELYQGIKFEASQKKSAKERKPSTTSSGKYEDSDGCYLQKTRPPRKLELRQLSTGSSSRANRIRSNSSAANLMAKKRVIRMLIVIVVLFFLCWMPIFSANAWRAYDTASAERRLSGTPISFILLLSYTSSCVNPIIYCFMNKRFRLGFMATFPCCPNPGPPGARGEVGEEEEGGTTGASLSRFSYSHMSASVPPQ

[6] = molecular target: Beta-2 adrenergic receptor (Homo sapiens, UniProt P07550); assay: DRUGMATRIX: Adrenergic beta2 radioligand binding (ligand: [3H] CGP-12177); format: cell membranes, Membrane; details: cho; Not Active = under 50% inhibition at 10 µM
Chain of Beta-2 adrenergic receptor (P07550 whole entry): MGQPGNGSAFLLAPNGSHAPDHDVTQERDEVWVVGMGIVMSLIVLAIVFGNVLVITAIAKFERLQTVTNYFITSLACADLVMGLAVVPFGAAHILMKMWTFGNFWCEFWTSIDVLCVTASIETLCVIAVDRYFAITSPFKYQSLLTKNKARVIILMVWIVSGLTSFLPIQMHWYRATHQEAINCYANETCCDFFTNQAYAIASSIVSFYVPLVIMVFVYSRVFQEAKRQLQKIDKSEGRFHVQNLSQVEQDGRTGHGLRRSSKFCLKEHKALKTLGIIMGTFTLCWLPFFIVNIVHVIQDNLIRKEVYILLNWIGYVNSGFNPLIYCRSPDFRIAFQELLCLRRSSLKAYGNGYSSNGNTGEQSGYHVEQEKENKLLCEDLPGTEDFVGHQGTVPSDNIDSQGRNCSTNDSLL

[7] = molecular target: Kappa-type opioid receptor (Homo sapiens, UniProt P41145); assay: DRUGMATRIX: Opiate kappa (OP2, KOP) radioligand binding (ligand: [3H] Diprenorphine); format: cell membranes, HEK293, Membrane; details: hek293; Not Active = under 50% inhibition at 10 µM
Chain of Kappa-type opioid receptor (P41145 whole entry): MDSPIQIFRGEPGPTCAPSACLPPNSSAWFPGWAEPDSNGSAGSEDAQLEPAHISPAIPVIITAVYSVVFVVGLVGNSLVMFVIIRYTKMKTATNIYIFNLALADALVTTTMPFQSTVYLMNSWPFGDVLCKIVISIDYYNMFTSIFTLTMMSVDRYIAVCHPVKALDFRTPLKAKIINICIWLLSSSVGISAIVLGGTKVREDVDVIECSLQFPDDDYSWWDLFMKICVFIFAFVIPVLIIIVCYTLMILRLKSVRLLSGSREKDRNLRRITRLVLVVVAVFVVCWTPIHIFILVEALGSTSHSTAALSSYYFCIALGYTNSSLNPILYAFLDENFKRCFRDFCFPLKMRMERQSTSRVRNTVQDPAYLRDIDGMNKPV

[8] = DRUGMATRIX: Calcium Channel Type L, Dihydropyridine radioligand binding (ligand: [3H] Nitrendipine); format: cell membranes, Rattus norvegicus, Wistar, Cerebral cortex, Membrane; details: Not Active = under 50% inhibition at 10 µM
Calcitonin receptor = molecular target: T3, Calcitonin receptor (Homo sapiens, UniProt P30988); format: cell membranes, Membrane; details: t47d; note: in other assays of this panel Not Active means under 50% inhibition at 10 µM
T3 sequence (P30988 whole entry): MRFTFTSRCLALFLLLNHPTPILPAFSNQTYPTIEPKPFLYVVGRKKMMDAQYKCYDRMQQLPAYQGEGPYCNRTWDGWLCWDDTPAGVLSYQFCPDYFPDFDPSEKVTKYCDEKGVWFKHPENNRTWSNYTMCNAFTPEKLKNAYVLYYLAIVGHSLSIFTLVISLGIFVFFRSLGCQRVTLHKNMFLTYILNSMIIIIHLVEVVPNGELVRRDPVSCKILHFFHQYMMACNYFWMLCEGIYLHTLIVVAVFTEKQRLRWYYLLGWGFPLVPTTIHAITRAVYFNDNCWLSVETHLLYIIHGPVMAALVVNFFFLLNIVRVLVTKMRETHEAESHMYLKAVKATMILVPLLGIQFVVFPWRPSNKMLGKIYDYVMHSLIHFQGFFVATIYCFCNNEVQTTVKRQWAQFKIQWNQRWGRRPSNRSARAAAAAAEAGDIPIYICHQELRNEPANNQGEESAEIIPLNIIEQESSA

[9] = molecular target: Tyrosine-protein kinase Lck (Homo sapiens, UniProt P06239); assay: DRUGMATRIX: Protein Tyrosine Kinase, LCK enzyme inhibition (substrate: Poly(Glu:Tyr)); format: cell-based, Insect cells; details: insect cells; Not Active = under 50% inhibition at 10 µM
Chain of Tyrosine-protein kinase Lck (P06239 whole entry): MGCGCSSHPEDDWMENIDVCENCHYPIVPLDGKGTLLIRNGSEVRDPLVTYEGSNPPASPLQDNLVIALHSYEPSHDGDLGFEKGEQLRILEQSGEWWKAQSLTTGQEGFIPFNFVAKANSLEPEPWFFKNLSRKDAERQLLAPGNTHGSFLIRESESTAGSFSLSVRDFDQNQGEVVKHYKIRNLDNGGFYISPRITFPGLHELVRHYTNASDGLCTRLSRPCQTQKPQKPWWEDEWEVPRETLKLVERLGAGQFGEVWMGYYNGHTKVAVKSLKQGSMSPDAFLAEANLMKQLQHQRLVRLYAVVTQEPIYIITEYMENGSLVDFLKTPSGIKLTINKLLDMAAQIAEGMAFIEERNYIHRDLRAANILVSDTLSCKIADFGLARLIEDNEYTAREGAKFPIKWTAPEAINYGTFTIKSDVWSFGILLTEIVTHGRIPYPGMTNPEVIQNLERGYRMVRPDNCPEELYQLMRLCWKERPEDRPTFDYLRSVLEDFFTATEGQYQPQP

[10] = DRUGMATRIX: Glutamate, NMDA, Phencyclidine radioligand binding (ligand: [3H] TCP); format: cell membranes, Rattus norvegicus, Wistar, Cerebral cortex, Membrane; details: Not Active = under 50% inhibition at 10 µM
[11] = molecular target: T4, Muscarinic acetylcholine receptor M2 (Homo sapiens, UniProt P08172); format: cell membranes, CHO-K1, Membrane; details: cho-k1; note: in other assays of this panel Not Active means under 50% inhibition at 10 µM
T4 sequence (P08172 whole entry): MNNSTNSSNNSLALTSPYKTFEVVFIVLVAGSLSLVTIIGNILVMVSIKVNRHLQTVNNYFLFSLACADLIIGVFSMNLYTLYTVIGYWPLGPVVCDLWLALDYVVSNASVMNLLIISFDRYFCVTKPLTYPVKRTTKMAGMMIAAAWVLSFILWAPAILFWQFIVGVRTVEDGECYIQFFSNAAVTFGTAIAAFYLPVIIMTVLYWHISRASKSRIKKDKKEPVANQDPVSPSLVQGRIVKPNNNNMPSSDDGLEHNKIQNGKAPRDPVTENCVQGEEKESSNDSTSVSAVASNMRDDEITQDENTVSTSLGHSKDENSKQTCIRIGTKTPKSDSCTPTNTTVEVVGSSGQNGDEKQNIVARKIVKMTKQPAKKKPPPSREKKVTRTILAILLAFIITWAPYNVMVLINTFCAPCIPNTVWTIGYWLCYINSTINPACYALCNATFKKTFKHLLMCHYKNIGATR

[12] = DRUGMATRIX: Phorbol Ester radioligand binding (ligand: [3H] PDBu); format: cell membranes, Mus musculus, ICR, Brain, Membrane; details: Not Active = under 50% inhibition at 10 µM
[13] = DRUGMATRIX: Leukotriene, BLT (LTB4) radioligand binding (ligand: [3H]LTB4); format: cell membranes, Membrane; details: u-937; Not Active = under 50% inhibition at 10 µM
[14] = DRUGMATRIX: Sigma2 radioligand binding (ligand: [3H] Ifenprodil); format: cell membranes, Rattus norvegicus, Wistar, Brain, Membrane; details: Not Active = under 50% inhibition at 10 µM

SMILES	IC50 [1]	Ki [1]	IC50 [2]	Ki [2]	IC50 [3]	IC50 (B2 bradykinin receptor)	IC50 [5]	IC50 [6]	IC50 [7]	IC50 (Calcitonin receptor)	IC50 [9]	IC50 [10]	Ki [10]	IC50 [11]	IC50 [12]	Ki [12]	IC50 [13]	Ki [13]	IC50 [14]	Ki [14]	further results
COc1c(C)c2c(c(O)c1C/C=C(\C)CCC(=O)OCCN1CCOCC1)C(=O)OC2 [MYCOPHENOLATE MOFETIL]	Not Active	Not Active	Not Active	Not Active	Not Active	Not Active	Not Active	Not Active	Not Active	Not Active	Not Active	Not Active	Not Active	Not Active	Not Active	Not Active	Not Active	Not Active	Not Active	Not Active	IC50 ([4]; cho-k1): Not Active; IC50 [8]: Not Active; Ki [8]: Not Active
COC(=O)C1=C(C)NC(C)=C(C(=O)OC)C1c1ccccc1[N+](=O)[O-] [NIFEDIPINE]	Not Active	Not Active	Not Active	Not Active	Not Active	Not Active	Not Active	Not Active	Not Active	Not Active	Not Active	Not Active	Not Active	Not Active	Not Active	Not Active	Not Active	Not Active	Not Active	Not Active	IC50 ([4]; read-out: IC50): 2190 nM; Ki ([4]; read-out: Ki): 847 nM; IC50 ([8]; read-out: IC50): 48 nM; Ki ([8]; read-out: Ki): 31 nM
CC(=O)[C@H]1CC[C@H]2[C@@H]3CCC4=CC(=O)CC[C@]4(C)[C@H]3CC[C@]12C [PROGESTERONE]	Not Active	Not Active	Not Active	Not Active	Not Active	Not Active	Not Active	Not Active	Not Active	Not Active	Not Active	Not Active	Not Active	Not Active	Not Active	Not Active	Not Active	Not Active	Not Active	Not Active	IC50 ([4]; cho-k1): Not Active; IC50 [8]: Not Active; Ki [8]: Not Active
NC(=O)c1ncn([C@@H]2O[C@H](CO)[C@@H](O)[C@H]2O)n1 [RIBAVIRIN]	Not Active	Not Active	Not Active	Not Active	Not Active	Not Active	Not Active	Not Active	Not Active	Not Active	Not Active	Not Active	Not Active	Not Active	Not Active	Not Active	Not Active	Not Active	Not Active	Not Active	IC50 ([4]; cho-k1): Not Active; IC50 [8]: Not Active; Ki [8]: Not Active
CC[C@H]1OC(=O)[C@H](C)[C@@H](O[C@H]2C[C@@](C)(OC)[C@@H](O)[C@H](C)O2)[C@H](C)[C@@H](O[C@@H]2O[C@H](C)C[C@H](N(C)C)[C@H]2O)[C@](C)(O)C[C@@H](C)/C(=N\OCOCCOC)[C@H](C)[C@@H](O)[C@]1(C)O [ROXITHROMYCIN]	Not Active	Not Active	Not Active	Not Active	Not Active	Not Active	Not Active	Not Active	Not Active	Not Active	Not Active	Not Active	Not Active	Not Active	Not Active	Not Active	Not Active	Not Active	Not Active	Not Active	IC50 ([4]; cho-k1): Not Active; IC50 [8]: Not Active; Ki [8]: Not Active
NC(=O)c1ccccc1O [SALICYLAMIDE]	Not Active	Not Active	Not Active	Not Active	Not Active	Not Active	Not Active	Not Active	Not Active	Not Active	Not Active	Not Active	Not Active	Not Active	Not Active	Not Active	Not Active	Not Active	Not Active	Not Active	IC50 ([4]; cho-k1): Not Active; IC50 [8]: Not Active; Ki [8]: Not Active
